The values below come from ChEMBL document CHEMBL5223187, “A Quantum Mechanics-Based Method to Predict Intramolecular Hydrogen Bond Formation Reflecting P-glycoprotein Recognition” (ACS Med Chem Lett, 2023).

A short description of data set [1]: Apparent permeability in pig LLC-PK1 cells by LC-MS/MS analysis. Type of data set: ADME, cell-based, Sus scrofa.
A further data set addresses Beta-secretase 1 (Homo sapiens, UniProt P56817). The data set can be described thus: Inhibition of BACE1 (unknown origin) by HTRF assay. (TR-FRET usually uses a lanthanide donor and a delayed reading to cut background.)

Chain of Beta-secretase 1 (P56817 whole entry): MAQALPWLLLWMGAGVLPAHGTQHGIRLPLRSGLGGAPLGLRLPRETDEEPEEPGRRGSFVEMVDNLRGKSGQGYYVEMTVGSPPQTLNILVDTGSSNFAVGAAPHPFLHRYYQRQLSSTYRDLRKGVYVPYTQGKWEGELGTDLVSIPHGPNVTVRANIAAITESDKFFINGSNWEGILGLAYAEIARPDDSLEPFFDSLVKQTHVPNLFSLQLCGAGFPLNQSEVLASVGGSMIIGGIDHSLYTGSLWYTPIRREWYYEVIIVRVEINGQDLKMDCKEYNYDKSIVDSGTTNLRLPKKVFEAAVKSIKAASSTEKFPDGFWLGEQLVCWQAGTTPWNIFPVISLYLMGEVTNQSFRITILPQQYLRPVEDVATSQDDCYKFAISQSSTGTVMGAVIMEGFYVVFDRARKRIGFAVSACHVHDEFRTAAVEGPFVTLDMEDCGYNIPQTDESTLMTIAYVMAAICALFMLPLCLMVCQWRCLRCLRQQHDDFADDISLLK

A word on the Papp: it is a coefficient for how fast a substance crosses the barrier. Turning to `C[C@@]1(c2cc(-c3cncnc3)c(F)cc2F)CCSC(N)=N1` [LY-2811376], the apparent permeability coefficient (Papp) in data set [1] was found to be 33 ×10⁻⁶ cm/s. The IC50 is the concentration at which inhibition is half-maximal. Read a high IC50 as weaker potency in that assay. For the compound `C[C@@]1(c2cc(NC(=O)c3ccn(C(F)F)n3)ccc2F)C=C(CF)OC(N)=N1`, the IC50 against Beta-secretase 1 stood at 82.3 nM. At Beta-secretase 1, `COc1cnc(C(=O)Nc2ccc(F)c([C@]3(C)C=C(CF)OC(N)=N3)c2)nc1` came in with an IC50 of 241 nM.

In turn, `C[C@@]1(c2cc(NC(=O)c3ncc(C#N)cc3F)ccc2F)C=C(CF)OC(N)=N1` registered an IC50 at Beta-secretase 1 of 155 nM. Take `C[C@@]1(c2cc(NC(=O)c3ccc(C#N)cn3)ccc2F)C=CSC(N)=N1` [ATABECESTAT]: the apparent permeability coefficient (Papp) in data set [1] stood at 23 ×10⁻⁶ cm/s.

As to `COc1cnc(C(=O)Nc2ccc(F)c([C@]3(C)C=C(CF)OC(N)=N3)c2)c(C)n1`, at Beta-secretase 1, the 50% inhibitory concentration (IC50) turned out to be 491 nM.
